According to US11739089B2, “Acetamido-phenyltetrazole derivatives and methods of using the same” (Athenex, Inc., priority 2020, dated 2023):
Like-named read-outs stand apart in the source and are kept apart here.

How the values were obtained:
[1] = target: CYP3A4 (Homo sapiens (Human), UniProt P08684); assay: CYP3A4 inhibitory activity: Luciferin-IPA (P450-Glo) assay with human liver microsome
Protocol: Cytochrome P450 activity may be determined by a P450-Glo™ assay (Promega) with human liver microsomes wherein the compounds of the present disclosure are dosed at different concentrations in buffer and incubated. Dose-response curve and IC50 data may be obtained and fit to a nonlinear regression model using GraphPad Prism software (v6.0).
The standard final Compound concentrations were 37, 111, 333, 1000, and 3000 nM. 12.5 μL of the Compound dilutions were transferred to a white 96-well plate. 1450 μL (enough for a whole plate) of 4× assay buffer (400 mM potassium phosphate buffer (10 mL 1M potassium phosphate buffer: 8.02 mL 1M K2HPO4+1.98 mL 1M KH2PO4 (1.4 g K2HPO4+0.27 g KH2PO4 in 10 mL H2O), 32 μM Luciferin-IPA (Promega V9002)) 580 μl of 1 M K3PO4 buffer, 870 μL H2O, 14 μL of 3 mM Luciferin-IPA, and 18 μL of human liver microsome (Sigma M0317-1VL) was made. 12.5 μL of 4× assay buffer was added to each well. For the well of blank control, 12.5 μL of 4× assay buffer without liver microsome was added. The plate was incubated at room temperature for 15 minutes. 2.75 mL NADPH buffer was made as follows: 2.42 mL H2O, 275 μL solution A and 55 μL solution B (NADPH regeneration system, Promega V9510). 25 μL of the buffer was added to each well. The plates were incubated at 37° C. for 11 minutes. 50 μL of luciferin detection reagent (Promega V9002) was added and the plates were incubated at room temperature for 5 minutes. The plate was read with a luminometer.
The dose-response curve and IC50 were obtained by fitting data to nonlinear regression model using GraphPad Prism software (v6.0).

[2] = target: P-glycoprotein (Homo sapiens (Human), UniProt P08183); assay: P-glycoprotein inhibitory activity: MTT cell growth assay in P-gp overexpressing MES-SA/DX5 cells with docetaxel or paclitaxel; format: cell-based; conditions: 3 days, with 100 nM docetaxel or 200 nM paclitaxel, MTT readout
Protocol: P-glycoprotein inhibitory activity may be determined by an assay wherein P-glycoprotein overexpressed cell lines are treated with increasing concentrations of a compound of the present disclosure and therapeutic agent for three days, followed by an MTT assay.
Cell growth percentage may be calculated with the following equation: Cell growth percentage=(T−T0)/(C−T0)×100%, wherein T is OD of the test well exposure to Compound; C is OD of the control well without Compound treatment; and T0 is OD at time zero.
A P-glycoprotein overexpressing cell line derived from the human uterine sarcoma cell line MES-SA (i.e., MES-SA/DX5 cells (ATCC)) was seeded by stepwise exposures to increasing concentrations of doxorubicin, in a 96-well plate at 6,500 cells/100 μL media (McCoy's 5A+10% FBS) in each well. The cells were incubated overnight at 37° C. 5% CO2. Compounds were diluted in a separate 96-well plate to yield 11× of final concentration (final Compound concentrations were 0, 5, 20, 80, 320, and 1280 nM and the final docetaxel concentration was 100 nM or the final paclitaxel concentration was 200 nM). DMSO was used as a negative control and known P-glycoprotein inhibitor, encequidar methane sulfonic acid monohydrate (HM30181A), was used as a positive control. 10 μL of the 11× dilutions was added to the appropriate well, P-glycoprotein inhibition wells comprised Compound+docetaxel (or Compound+paclitaxel). The compound toxicity wells comprised 1280 nM Compound+10 μL of culture media. Treated the cells were incubated for 3 days at 37° C. 5% CO2.
To value (reflecting the starting number of cells upon Compound treatment) of 3 wells of cells was determined by performing the following steps 1-4 as described below.
1. 10 μL MTT (5 mg/mL in PBS) was added to each well and incubated for 1.5 hours at 37° C. 5% CO2.
2. Culture media was removed and 100 μL of DMSO was added to each well.
3. The plate was gently shook until all purple MTT formazan crystals were dissolved. OD540 was then measured using microplate reader.
4. Cell growth percentage was calculated with the following equation: Cell growth percentage=(T−T0)/(C−T0)×100%, wherein T is OD of the test well exposure to Compound; C is OD of the control well without Compound treatment; and T0 is OD at time zero.

Sequence of CYP3A4 (P08684 whole entry): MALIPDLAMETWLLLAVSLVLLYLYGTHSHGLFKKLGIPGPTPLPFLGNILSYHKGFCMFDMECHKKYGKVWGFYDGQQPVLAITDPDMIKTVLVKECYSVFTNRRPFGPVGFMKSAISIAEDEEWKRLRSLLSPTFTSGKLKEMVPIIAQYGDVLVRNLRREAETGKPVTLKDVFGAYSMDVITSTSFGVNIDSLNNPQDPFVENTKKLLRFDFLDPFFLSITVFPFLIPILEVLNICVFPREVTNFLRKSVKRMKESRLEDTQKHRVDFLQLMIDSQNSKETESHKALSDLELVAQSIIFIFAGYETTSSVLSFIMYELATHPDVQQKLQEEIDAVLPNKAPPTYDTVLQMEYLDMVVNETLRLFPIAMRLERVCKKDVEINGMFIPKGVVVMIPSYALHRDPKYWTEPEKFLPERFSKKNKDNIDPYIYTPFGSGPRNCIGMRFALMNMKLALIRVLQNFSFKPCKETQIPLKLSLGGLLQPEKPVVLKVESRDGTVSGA
Sequence of P-glycoprotein (P08183 whole entry): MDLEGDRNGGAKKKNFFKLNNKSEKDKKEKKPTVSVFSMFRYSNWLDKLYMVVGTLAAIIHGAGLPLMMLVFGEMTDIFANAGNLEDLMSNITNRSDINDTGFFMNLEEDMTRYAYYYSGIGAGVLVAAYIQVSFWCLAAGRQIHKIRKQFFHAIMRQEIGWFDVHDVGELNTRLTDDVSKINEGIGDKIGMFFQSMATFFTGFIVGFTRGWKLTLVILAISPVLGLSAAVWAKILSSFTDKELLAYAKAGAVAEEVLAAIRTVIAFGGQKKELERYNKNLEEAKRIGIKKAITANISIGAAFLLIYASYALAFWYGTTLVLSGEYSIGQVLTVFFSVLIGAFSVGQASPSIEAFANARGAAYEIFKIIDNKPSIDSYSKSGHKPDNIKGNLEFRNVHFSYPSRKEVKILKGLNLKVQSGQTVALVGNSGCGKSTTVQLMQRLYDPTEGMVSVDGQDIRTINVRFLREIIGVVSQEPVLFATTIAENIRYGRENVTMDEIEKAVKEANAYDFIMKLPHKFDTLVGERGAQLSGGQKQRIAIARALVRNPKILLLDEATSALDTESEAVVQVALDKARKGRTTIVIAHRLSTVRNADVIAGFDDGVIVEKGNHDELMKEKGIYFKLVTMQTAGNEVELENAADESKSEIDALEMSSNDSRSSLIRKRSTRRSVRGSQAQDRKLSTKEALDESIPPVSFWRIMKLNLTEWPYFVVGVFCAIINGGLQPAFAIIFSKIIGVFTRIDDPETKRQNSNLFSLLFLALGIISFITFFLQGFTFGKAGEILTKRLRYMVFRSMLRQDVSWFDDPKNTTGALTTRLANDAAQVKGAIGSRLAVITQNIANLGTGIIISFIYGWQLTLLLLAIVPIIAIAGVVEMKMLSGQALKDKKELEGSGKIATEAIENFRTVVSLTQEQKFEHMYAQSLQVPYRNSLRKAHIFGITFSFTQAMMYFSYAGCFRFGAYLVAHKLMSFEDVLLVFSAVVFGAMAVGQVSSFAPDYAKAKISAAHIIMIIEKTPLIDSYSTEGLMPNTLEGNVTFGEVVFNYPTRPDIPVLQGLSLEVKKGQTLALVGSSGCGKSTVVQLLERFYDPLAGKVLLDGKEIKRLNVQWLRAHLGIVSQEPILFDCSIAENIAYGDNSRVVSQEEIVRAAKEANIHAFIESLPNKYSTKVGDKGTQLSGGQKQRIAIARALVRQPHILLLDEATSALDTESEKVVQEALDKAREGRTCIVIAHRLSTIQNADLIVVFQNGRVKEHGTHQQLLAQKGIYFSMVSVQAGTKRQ

IC50 ([1]; human, microsomes, 11 min) [nM]	EC50 [2] [nM]	IC50 [1] [nM]	SMILES
–	250 to 500	500 to 1000	COc1cc2c(cc1OC)CN(CCc1ccc(-n3nnc(-c4cc(OC)c(OC)cc4NC(=O)c4ccc(-n5ccnc5)cc4)n3)cc1)CC2 [Compound 23, N-(2-(2-(4-(2-(6,7-Dimethoxy-3,4-dihydroisoquinolin-2(1H)-yl)ethyl)phenyl)-2H-tetrazol-5-yl)-4,5-dimethoxyphenyl)-4-(1H-imidazol-1-yl)benzamide]
> 1000	< 100	–	COc1cc2c(cc1OC)CN(CCc1ccc(-n3nnc(-c4cc(OCc5ccncc5)ccc4NC(=O)c4cc(=O)c5ccccc5o4)n3)cc1)CC2 [Compound 26, N-(2-(2-(4-(2-(6,7-Dimethoxy-3,4-dihydroisoquinolin-2(1H)-yl)ethyl)phenyl)-2H-tetrazol-5-yl)-4-(pyridin-4-ylmethoxy)phenyl)-4-oxo-4H-chromene-2-carboxamide]
–	100 to 250	500 to 1000	COc1cc2c(cc1OC)CN(CCc1ccc(-n3nnc(-c4cc(OCCc5cccnc5)ccc4NC(=O)c4cc(=O)c5ccccc5o4)n3)cc1)CC2 [Compound 28, N-(2-(2-(4-(2-(6,7-Dimethoxy-3,4-dihydroisoquinolin-2(1H)-yl)ethyl)phenyl)-2H-tetrazol-5-yl)-4-(2-(pyridin-3-yl)ethoxy)phenyl)-4-oxo-4H-chromene-2-carboxamide]

The remaining lines, values behind:

SMILES	IC50 ([1]; human, microsomes, 11 min) [nM]	EC50 [2] [nM]	IC50 [1] [nM]
COc1cc2c(cc1OC)CN(CCc1ccc(-n3nnc(-c4cc(OC)c(OC)cc4NC(=O)c4ccc(-c5ccncc5)cc4)n3)cc1)CC2 [Compound 21, N-(2-(2-(4-(2-(6,7-Dimethoxy-3,4-dihydroisoquinolin-2(1H)-yl)ethyl)phenyl)-2H-tetrazol-5-yl)-4,5-dimethoxyphenyl)-4-(pyridin-4-yl)benzamide]	> 1000	< 100	–
COc1cc(NC(=O)c2cc(=O)c3ccccc3o2)c(-c2nnn(-c3ccc(CCN4CCn5cncc5C4)cc3)n2)cc1OC [Compound 1, A-(2-(2-(4-(2-(5,6-Dihydroimidazo[1,5-a]pyrazin-7(8H)-yl)ethyl)phenyl)-2H-tetrazol-5-yl)-4,5-dimethoxyphenyl)-4-oxo-4H-chromene-2-carboxamide]	> 1000	> 1000	–
COc1cc(NC(=O)c2cc(=O)c3ccccc3o2)c(-c2nnn(-c3ccc(CCN4CCn5cncc5C4)cc3)n2)cc1OCc1ccccc1 [Compound 18, N-(4-(Benzyloxy)-2-(2-(4-(2-(5,6-dihydroimidazo[1,5-a]pyrazin-7(8H)-yl)ethyl)phenyl)-2H-tetrazol-5-yl)-5-methoxyphenyl)-4-oxo-4H-chromene-2-carboxamide]	> 1000	< 100	–
COc1cc(NC(=O)c2cc(=O)c3ccccc3o2)c(-c2nnn(-c3ccc(CCN4CCc5ccncc5C4)cc3)n2)cc1OC [Compound 6, N-(2-(2-(4-(2-(3,4-Dihydro-2,7-naphthyridin-2(1H)-yl)ethyl)phenyl)-2H-tetrazol-5-yl)-4,5-dimethoxyphenyl)-4-oxo-4H-chromene-2-carboxamide]	> 1000	100 to 250	–
COc1cc(NC(=O)c2cnc3ccccc3n2)c(-c2nnn(-c3ccc(CCN4CCc5cnccc5C4)cc3)n2)cc1OC [Compound 9, N-(2-(2-(4-(2-(3,4-Dihydro-2,6-naphthyridin-2(1H)-yl)ethyl)phenyl)-2H-tetrazol-5-yl)-4,5-dimethoxyphenyl)quinoxaline-2-carboxamide]	–	> 1000	500 to 1000
COc1cc(NC(=O)c2cc(=O)c3ccccc3o2)c(-c2nnn(-c3ccc(CCN4CCc5ccc(-n6ccnc6)cc5C4)cc3)n2)cc1OC [Compound 10, N-(2-(2-(4-(2-(7-(1H-Imidazol-1-yl)-3,4-dihydroisoquinolin-2(1H)-yl)ethyl)phenyl)-2H-tetrazol-5-yl)-4,5-dimethoxyphenyl)-4-oxo-4H-chromene-2-carboxamide]	–	> 1000	250 to 500
